Data set [1] is described as follows: Aqueous solubility of the compound in 0.01M HCl at pH 2 by nephelometry. Format: physicochemical.
Data set [2] in a line: Aqueous solubility of the compound in phosphate buffer at pH 6.5 by nephelometry. It is filed as physicochemical.

Molecules are shown by their SMILES. In brackets after ≈: the same amount, converted by molar mass.

Broadly, the solubility (kinetic) is solubility judged after dilution from a stock solution rather than from solid. On to `CC(C)c1cnc(NC(=O)CCCOc2ccccc2)s1`, for which the kinetic solubility in data set [1] and in data set [2] was less than 1.2 µM in each case.
With `Cc1cnc(NC(=O)CCCOc2cccc(Cl)c2)s1`, the kinetic solubility in data set [1] and in data set [2] was less than 1.1 µM each time.
As for `Cc1cnc(NC(=O)CCCOc2cncc(Cl)c2)s1`, the solubility (kinetic) in data set [1] is 1.6 to 3.1 µM (≈ 0.499 to 0.967 µg/mL); in data set [2], 3.1 to 6.3 µM (≈ 0.967 to 1.96 µg/mL).
The corresponding values for `N#Cc1cnc(NC(=O)CCCOc2cccc(Cl)c2)s1` are less than 1.6 µM and less than 1.6 µM.
The corresponding values for `Cc1cnc(NC(=O)NCCOc2ccc(Cl)c(C)c2)s1` are 1.6 to 3.1 µM (≈ 0.521 to 1.01 µg/mL) and less than 1.6 µM.
`N#Cc1cnc(NC(=O)CCCOc2cccc(C(F)(F)F)c2)s1`: the solubility (kinetic) in data set [1] and in data set [2] was less than 1.6 µM throughout.
Consider `O=C(CCCOc1cccc(C(F)(F)F)c1)Nc1ncc(C(F)(F)F)s1`, for which the solubility (kinetic) in data set [1] and in data set [2] was less than 1.6 µM throughout.
In the case of `Cc1cnc(NC(=O)CCCOc2cccc(Cl)n2)s1`, the solubility (kinetic) in data set [1] and in data set [2] was less than 1.2 µM each time.
As to `N#Cc1cnc(NC(=O)CCCOc2ccccc2)s1`, the solubility (kinetic) in data set [1] and in data set [2] was 1.1 to 2.2 µM (≈ 0.316 to 0.632 µg/mL) in each case.
Turning to `Cc1cnc(NC(=O)CCCOc2cccc(C(F)(F)F)c2)s1`, the solubility (kinetic) in data set [1] and in data set [2] was less than 1.1 µM throughout.
As to `O=C(CCCOc1ccccc1)Nc1ncc(Cl)s1`, the kinetic solubility in data set [1] and in data set [2] was less than 1.2 µM throughout.
For `Cc1cnc(NC(=O)CCCOc2cccc(C#N)c2)s1`, the solubility (kinetic) in data set [1] and in data set [2] was less than 1.1 µM each time.
Regarding `Cc1cnc(NC(=O)CCCOc2ccccc2)s1`, the solubility (kinetic) in data set [1] is 1.1 to 2.3 µM (≈ 0.304 to 0.636 µg/mL); in data set [2], less than 1.1 µM.

(Values after ChEMBL document CHEMBL4396867, “Identification of 5-Substituted 2-Acylaminothiazoles That Activate Tat-Mediated Transcription in HIV-1 Latency Models” (J Med Chem, 2019).)
